Reference: US20160018400A1, “DIAGNOSTIC AND PROGNOSTIC BIOMARKERS FOR PROSTATE CANCER AND OTHER DISORDERS” (CANCER RESEARCH TECHNOLOGY LIMITED, priority 2013, published 2016)

Experiments:
VPS13A = VPS13A protein expression in LNCaP cells after calcium modifiers (SDS-PAGE / western blot); type: cell-based; conditions: LNCaP cells treated for 8 hours with 10 μM; lysates probed for VPS13A and tubulin
Description: Non-targeting control LNCaP cells or siVPS13A cells were treated for 8 hours with 10 μM BAPTA (B), calcimycin (Cal) or control (C). Protein lysates were separated by SDS-PAGE and probed for VPS13A and tubulin.
Cells were fixed and stained as before using anti-VPS13A antibody (1:50, Human Protein Atlas) and LAMP2 antibody (1:500, BD Biosciences) (8). Cells were imaged using Alexafluor 594 and 488 secondary antibodies (Molecular Probes) and mounted with DAPI. All images were obtained using a Nikon Eclipse confocal microscope using a 100× objective. For calcium modifying experiments, LNCaP cells were grown as before to ˜50% confluence before being treated for 8 hours with 10 μM of the calcium ionophore, calcimycin (Invitrogen) or 10 μM of the calcium chelating agent 1,2-bis(o-aminophenoxy)ethane-N,N,N′,N′-tetraacetic acid (BAPTA) (Invitrogen) (Whitaker et al., 2007).
Protein lysates were produced as described (8) and separated by SDS-PAGE before blotting for VPS13A (1:1000, Human Protein Atlas), FAK (1:1000, Cell Signaling Technology), pTyr397-FAK (1:1000, Cell Signaling Technology) or tubulin (1:2000, Abcam).

LNCaP cells = test: Confocal microscopy of VPS13A vesicle association/fusion with LAMP2-positive lysosomes; type: cell-based
Description: FIG. […] The cells were then fixed and stained for LAMP2 and VPS13A. Using the 100× lens, the number of lysosomes in 10 fields of view were counted. Then the number of VPS13A fusion events was counted in the same field of view. A fusion event was classed as a VPS13A vesicle touching or integrated into a LAMP2 positive lysosome. *Data are shown normalised to the number of lysosomes in each field of view. P-values were calculated using a Mann-Whitney 2-tailed t-test.
Cells were fixed and stained as before using anti-VPS13A antibody (1:50, Human Protein Atlas) and LAMP2 antibody (1:500, BD Biosciences) (8). Cells were imaged using Alexafluor 594 and 488 secondary antibodies (Molecular Probes) and mounted with DAPI. All images were obtained using a Nikon Eclipse confocal microscope using a 100× objective. […]

Row | Structure (SMILES) | intracellular levels of VPS13A (VPS13A protein expression) (VPS13A) | VPS13A vesicle integration into the lysosome membrane (LNCaP cells; cells treated with bafilomycin, LAMP2 staining) | number of VPS13A vesicles that associated with lysosomes (fusion events, normalised to number of lysosomes) (LNCaP cells; LNCaP cells, LAMP2 and VPS13A staining, p=0.0004)
1 | O=C(O)CN(CC(=O)O)c1ccccc1OCCOc1ccccc1N(CC(=O)O)CC(=O)O [BAPTA, 1,2-bis(o-aminophenoxy)ethane-N,N,N′,N′-tetraacetic acid] | no significant change in VPS13A expression | – | –
2 | CO/C1=C\C(C)=C\[C@@H](C)[C@@H](O)[C@@H](C)C/C(C)=C/C=C/[C@H](OC)[C@@H]([C@@H](C)[C@@H](O)[C@H](C)[C@@]2(O)C[C@@H](O)[C@H](C)[C@@H](C(C)C)O2)OC1=O [bafilomycin] | – | VPS13A vesicles are seen integrated into the lysosome membrane | –
3 | CNc1ccc2oc(C[C@H]3O[C@@]4(CC[C@H]3C)O[C@H]([C@H](C)C(=O)c3ccc[nH]3)[C@H](C)C[C@H]4C)nc2c1C(=O)O [calcimycin] | increase in the intracellular levels of VPS13A | – | highly significant decrease
